Assay results as given in publication PMC12561106, “STOP Strategy to Inhibit P. falciparum and S. aureus Growth: Molecular Mechanism Studies on Purposely Designed Hybrids” (Antibiotics, 2025).
≈ marks a conversion by molar mass, not a printed value. Read-outs that look alike come from different tables or passages of the source.

How the values were obtained:
E. coli ATCC 25923 = experiment: broth microdilution antimicrobial assay (MIC); type: cell-based; details: Escherichia coli, ATCC25923, 24 h, range 100–0.19 µM
S. aureus ATCC 25923 = experiment: broth microdilution antimicrobial assay (MIC, IC50); type: cell-based; details: Staphylococcus aureus, ATCC25923; for IC50: S. aureus ATCC 25923, 24 h, OD630, mean value with standard deviation, read-out: IC50 ATCC 25923; for MIC: broth microdilution, 24 h, range 100–0.19 µM
Description: (§1) Reference bacterial strains of Staphylococcus aureus (ATCC 25923) and Escherichia coli (ATCC 25922) were used in this study as Gram-positive and negative models, respectively. These reference strains were purchased from the American Type Culture Collection (ATCC, Manassas, VA, USA). Clinical isolates, identified by MALDI-TOF MS (Bruker Daltonik, GmbH, Bremen, Germany), were profiled for their antibiotic susceptibility by using the Vitek2 semiautomated system (bioMérieux, Craponne, France) and according to EUCAST (Version 12, 2022, http://www.eucast.org (accessed on 1 January 2022)). The bacterial cultures were routinely grown on 5% blood agar plates (Biolife Italiana S.r.l., Milan, Italy) and were freshly used in the antibacterial assays.
(§2) The minimum inhibitory concentrations (MICs) were determined using the microbroth dilution method in microtiter plates according to the Clinical and Laboratory Standards Institute (CLSI) guidelines. In short, microbial inocula were prepared at 0.5 McFarland in PBS and, subsequently, bacterial suspensions were diluted 1:200 in Mueller–Hinton broth (Sigma-Aldrich, St. Louis, MO, USA), while fungal inoculum was diluted 1:20 in RPMI-1640 medium (Gibco®, ThermoFisher Scientific Inc., Waltham, MA, USA), containing glucose 2%, 0.3% levo-glutamine buffered to pH 7.0 with 0.165 M 3-(N-morpholino)propanesulfonic acid (MOPS). A total of 100 µL of these microbial suspensions was introduced into a 96-well microplate and incubated with 100 µL of the compounds, two-fold serially diluted in the range of 100–0.19 µM. Positive controls (microbial suspensions in regular media), negative controls (only compounds), solvent controls (microbial suspensions incubated with DMSO dilutions), and the reference drug controls were included in the tests. The plate was incubated at 37 °C for 24 h, and subsequently the optical density at 630 nm (OD630nm) was spectrophotometrically measured. Experiments were performed in triplicate with three biological replicates. In addition to MIC, IC50 values were measured for the active compounds. The values, corresponding to the concentration of the compound giving rise to an inhibition of growth of 50%, were obtained by interpolation on dose–response curves generated by plotting the percentages of growth inhibition, relative to the positive control (set to 100% of growth), as a function of the tested concentrations (on a logarithm scale). Statistical analysis was carried out by using GraphPad Prism version 9.4.1 for Windows (GraphPad Software, San Diego, CA, USA, www.graphpad.com).

[1] = test system: clinical isolates of S. aureus (MRSA); experiment: antibiotic susceptibility profiling of clinical isolates (Vitek2, EUCAST); type: cell-based, Staphylococcus aureus; details: for Antibiotic-resistance profile, MRSA 3: clinical isolate MRSA 3; for Antibiotic-resistance profile, MRSA 4: clinical isolate MRSA 4; for Antibiotic-resistance profile, MRSA 5: clinical isolate MRSA 5; for Antibiotic-resistance profile, MRSA 1: clinical isolate MRSA 1; for Antibiotic-resistance profile, MRSA 2: clinical isolate MRSA 2; for all read-outs here: key: R = Resistant; S = Susceptible; I = Intermediate
Description: as §1

[2] = test system: P. falciparum CQ-resistant (CQ-R) W2 strain; experiment: antiplasmodial drug susceptibility assay (pLDH), CQ-resistant strain; type: cell-based; details: Plasmodium falciparum, read-out: IC50 W2 (CQ-R)
Experimental: (§3) P. falciparum cultures were carried out according to Trager and Jensen with slight modifications. The CQ-sensitive strain D10 and the CQ-resistant strain W2 were maintained at 5% hematocrit (human A-positive erythrocytes) in RPMI 1640 medium (EuroClone S.p.A, Milan, Italy) with the addition of 1% AlbuMax (Invitrogen, San Diego, California, USA), 0.01% hypoxanthine, 20 mM Hepes, and 2 mM glutamine at 37 °C in a standard gas mixture (1% O2, 5% CO2, and 94% N2). […] Drugs were placed in 96-well flat-bottomed microplates, and serial dilutions were made. Asynchronous cultures with parasitaemia of 1–1.5% and 1% final hematocrit were aliquoted into the plates and incubated for 72 h at 37 °C. Parasite growth was determined spectrophotometrically (OD650nm) by measuring the activity of the parasite lactate dehydrogenase (pLDH), as described in a modified version of Makler’s method in control- and drug-treated cultures. The antiplasmodial activity is expressed as 50% inhibitory concentrations (IC50); each IC50 value is the mean ± standard deviation of at least three separate experiments performed in duplicate.

[3] = test system: P. falciparum CQ-sensitive (CQ-S) D10 strain; experiment: antiplasmodial drug susceptibility assay (pLDH), CQ-sensitive strain; type: cell-based; details: Plasmodium falciparum, read-out: IC50 D10 (CQ-S)
Experimental: as §3

[4] = cell viability and proliferation assay (CCK-8/WST8); type: cell-based; details: human, WS1 cells (human-derived fibroblasts, ATCC CRL-1502), mean value with standard deviation
Experimental: WS1 cells (ATCC CRL-1502) were selected as a model system to investigate the effect of PTZ-quinoline hybrid compounds on human-derived fibroblasts. Briefly, cells were cultured in DMEM-High glucose supplemented with 10% fetal bovine serum (FBS) (Carlo Erba Reagents, Milan, Italy), 100 U/mL penicillin, and 100 µg/mL streptomycin at 37 °C with 5% CO2. For experiments, cells were seeded into 96-well plates at 0.7 × 10^4 cells/well, and incubated at 37 °C for 24 h. […] Cell viability was assessed by a WST8-based assay according to the manufacturer’s instructions (CCK-8, Cell Counting Kit-8, Dojindo Molecular Technologies, Rockville, MD, USA). After 48 h of incubation, culture medium was removed from each well, the monolayer was washed with PBS, and 100 µL of fresh medium containing 10 µL of CCK-8 solution was added. Following a 2 h incubation at 37 °C, the OD450nm was read, and data were expressed as the percentage of cell viability relative to the untreated controls. The CC50 was obtained on the corresponding dose–response curves generated as previously reported for IC50 values. Experiments were carried out in triplicate in three biological replicates.

C. albicans ATCC 10231 = experiment: broth microdilution antifungal assay (MIC); type: cell-based; details: Candida albicans, ATCC10231, 24 h, range 100–0.19 µM
Experimental: The reference strain of Candida albicans (ATCC 10231) was used in the present study and maintained on Sabouraud Dextrose Agar (Biolife Italiana S.r.l., Milan, Italy) before the antifungal assays.
as §2

Work on `CC1(C)S[C@@H]2[C@H](NC(=O)[C@H](N)c3ccccc3)C(=O)N2[C@H]1C(=O)O` [AMP, ampicillin, reference compound] yielded an MIC (E. coli ATCC 25923) of 67.3 µM (≈ 23.5 µg/mL), an IC50 (S. aureus ATCC 25923) of 2.59 ± 0.13 µM and an MIC (S. aureus ATCC 25923) of 4.2 µM (≈ 1.47 µg/mL).
In the case of `CCC[C@@H]1C[C@@H](C(=O)N[C@@H]([C@H]2O[C@H](SC)[C@H](O)[C@@H](O)[C@H]2O)[C@H](C)Cl)N(C)C1` [CM, Clindamicyn], the “Antibiotic-resistance profile, MRSA 3” value [1] is reported as “R”, the “Antibiotic-resistance profile, MRSA 4” value [1] is reported as “S” and the “Antibiotic-resistance profile, MRSA 5” value [1] is reported as “S”.
With `CCN(CC)CCCC(C)Nc1ccnc2cc(Cl)ccc12` (stereo not shown) [CQ, chloroquine, reference compound] the IC50 ([2]; W2, 72 h) was 0.42 ± 0.103 µM and the IC50 ([3]; D10, 72 h) was 0.025 ± 0.007 µM.
For `Clc1ccc2c(N3CCN(CCCN4c5ccccc5Sc5ccccc54)CC3)ccnc2c1` [Compound 1, 10-(3-(4-(7-chloroquinolin-4-yl)piperazin-1-yl)propyl)-10H-phenothiazine], the IC50 ([2]; P. falciparum W2, 72 h, pLDH, mean value with standard deviation) was 2.32 ± 1.05 µM, the MIC (E. coli ATCC 25923) was > 100 µM and the CC50 at 48 h [4] was > 100 µM. For the same molecule, the MIC (C. albicans ATCC 10231) was > 100 µM, the MIC (S. aureus ATCC 25923) was > 100 µM and the IC50 ([3]; P. falciparum D10, 72 h, pLDH, mean value with standard deviation) was 2.52 ± 0.84 µM.
In the case of `Clc1ccc2c(N3CCN(CCCCN4c5ccccc5Sc5ccccc54)CC3)ccnc2c1` [Compound 2, 10-(4-(4-(7-chloroquinolin-4-yl)piperazin-1-yl)butyl)-10H-phenothiazine], the MIC (E. coli ATCC 25923) is reported as > 100 µM, the CC50 at 48 h [4] is reported as > 100 µM and the MIC (C. albicans ATCC 10231) is reported as > 100 µM. For the same molecule, the MIC (S. aureus ATCC 25923) was > 100 µM.
With `Clc1ccc2c(-n3cc(CN4c5ccccc5Sc5ccccc54)nn3)ccnc2c1` [Compound 7, 10-((1-(7-chloroquinolin-4-yl)-1H-1,2,3-triazol-4-yl)methyl)-10H-phenothiazine] the MIC (E. coli ATCC 25923) was > 100 µM, the CC50 at 48 h [4] was > 100 µM and the MIC (C. albicans ATCC 10231) was > 100 µM. For the same molecule, the MIC (S. aureus ATCC 25923) was > 100 µM.
With `CC[C@H]1OC(=O)[C@H](C)[C@@H](O[C@H]2C[C@@](C)(OC)[C@@H](O)[C@H](C)O2)[C@H](C)[C@@H](O[C@@H]2O[C@H](C)C[C@H](N(C)C)[C@H]2O)[C@](C)(O)C[C@@H](C)C(=O)[C@H](C)[C@@H](O)[C@]1(C)O` [E, Erythromycin] the “Antibiotic-resistance profile, MRSA 3” value [1] was “R”, the “Antibiotic-resistance profile, MRSA 4” value [1] was “S” and the “Antibiotic-resistance profile, MRSA 5” value [1] was “S”.
With `OC(Cn1cncn1)(Cn1cncn1)c1ccc(F)cc1F` [FLC, Fluconazole, reference compound] the MIC (C. albicans ATCC 10231) was 0.82 µM (≈ 0.251 µg/mL).
With `CNC(C)C1CCC(N)C(OC2C(N)CC(N)C(OC3OCC(C)(O)C(NC)C3O)C2O)O1` (stereo not shown) [GEN, gentamicin] the MIC (E. coli ATCC 25923) was 1.03 µM (≈ 0.492 µg/mL), the “Antibiotic-resistance profile, MRSA 1” value [1] was “S” and the “Antibiotic-resistance profile, MRSA 2” value [1] was “S”. The “Antibiotic-resistance profile, MRSA 3” value [1] was “S”, the “Antibiotic-resistance profile, MRSA 4” value [1] was “S” and the “Antibiotic-resistance profile, MRSA 5” value [1] was “S”. For the same molecule, the IC50 (S. aureus ATCC 25923) was 4 ± 0.05 µM and the MIC (S. aureus ATCC 25923) was 6.6 µM (≈ 3.15 µg/mL).
With `C[C@H]1COc2c(N3CCN(C)CC3)c(F)cc3c(=O)c(C(=O)O)cn1c23` [LVX, Levofloxacin] the “Antibiotic-resistance profile, MRSA 1” value [1] was “R”, the “Antibiotic-resistance profile, MRSA 2” value [1] was “R” and the “Antibiotic-resistance profile, MRSA 3” value [1] was “R”. For the same molecule, the “Antibiotic-resistance profile, MRSA 4” value [1] was “R” and the “Antibiotic-resistance profile, MRSA 5” value [1] was “R”.
For `Cc1onc(-c2ccccc2)c1C(=O)N[C@@H]1C(=O)N2[C@@H]1SC(C)(C)[C@@H]2C(=O)O` [OX, Oxacillin], the “Antibiotic-resistance profile, MRSA 1” value [1] was “R”, the “Antibiotic-resistance profile, MRSA 2” value [1] was “R” and the “Antibiotic-resistance profile, MRSA 3” value [1] was “R”. For the same molecule, the “Antibiotic-resistance profile, MRSA 4” value [1] was “R” and the “Antibiotic-resistance profile, MRSA 5” value [1] was “R”.
With `CN(C)[C@@H]1C(O)=C(C(N)=O)C(=O)[C@@]2(O)C(O)=C3C(=O)c4c(O)cccc4[C@@](C)(O)[C@H]3C[C@@H]12` [TE, Tetracycline] the “Antibiotic-resistance profile, MRSA 1” value [1] was “S”, the “Antibiotic-resistance profile, MRSA 2” value [1] was “S” and the “Antibiotic-resistance profile, MRSA 3” value [1] was “S”. The “Antibiotic-resistance profile, MRSA 4” value [1] was “S” and the “Antibiotic-resistance profile, MRSA 5” value [1] was “S”.
With `CN[C@H](CC(C)C)C(=O)N[C@H]1C(=O)N[C@@H](CC(N)=O)C(=O)N[C@H]2C(=O)N[C@H]3C(=O)N[C@H](C(=O)N[C@H](C(=O)O)c4cc(O)cc(O)c4-c4cc3ccc4O)[C@H](O)c3ccc(c(Cl)c3)Oc3cc2cc(c3O[C@@H]2O[C@H](CO)[C@@H](O)[C@H](O)[C@H]2O[C@H]2C[C@](C)(N)[C@H](O)[C@H](C)O2)Oc2ccc(cc2Cl)[C@H]1O` [VA, Vancomycin] the “Antibiotic-resistance profile, MRSA 1” value [1] was “S”, the “Antibiotic-resistance profile, MRSA 2” value [1] was “S” and the “Antibiotic-resistance profile, MRSA 3” value [1] was “S”. The “Antibiotic-resistance profile, MRSA 4” value [1] was “S” and the “Antibiotic-resistance profile, MRSA 5” value [1] was “S”.
For Penicillin, the “Antibiotic-resistance profile, MRSA 1” value [1] was “R”, the “Antibiotic-resistance profile, MRSA 2” value [1] was “R” and the “Antibiotic-resistance profile, MRSA 3” value [1] was “R”. The “Antibiotic-resistance profile, MRSA 4” value [1] was “R” and the “Antibiotic-resistance profile, MRSA 5” value [1] was “R”.
In the case of Teicoplanin [TEC], the “Antibiotic-resistance profile, MRSA 1” value [1] is reported as “S”, the “Antibiotic-resistance profile, MRSA 2” value [1] is reported as “S” and the “Antibiotic-resistance profile, MRSA 3” value [1] is reported as “S”. For the same molecule, the “Antibiotic-resistance profile, MRSA 4” value [1] was “S” and the “Antibiotic-resistance profile, MRSA 5” value [1] was “S”.
